# Experimental data published in patent US12655150B2 (Cedilla Therapeutics, Inc., priority 2021, dated 2026).
# Tested on: NCI-H226
# Assay: 72H TEAD Proliferation Assay (Cell Titer Glo 2.0)
# Format: cell-based
# Settings: Homo sapiens, NCI-H226, 72 h, CTG 2.0, cell line not given (NCI-H226 responsive, NCI-H28 non-responsive)
# Outline: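 NF2-deficient NCI-H226 mesothelioma cells, TEAD-dependent, treated 72 h; NF2-wild-type NCI-H28 serves as the TEAD-independent counter-screen for off-target cytotoxicity. Viable cells quantified by CellTiter-Glo 2.0 luminescence; background and time-zero signal subtracted, GI50 from nonlinear dose-response fit.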
row,GI50,Compound
1,> 10000 nM,"CC(C)(C)c1ccc(-c2cnc3ccc(C(=O)O)cc3n2)cc1 [I-157, 3-(4-(tert-Butyl)phenyl)quinoxaline-6-carboxylic acid]"
2,> 10000 nM,"CC(C)(C)c1ccc(-c2cnc3ccc(C(N)=O)cc3n2)cc1 [I-158, 3-(4-(tert-Butyl)phenyl)quinoxaline-6-carboxamide]"
3,> 10000 nM,"CC(C)(C)c1ccc(-c2cnc3ccc(C#N)cc3n2)cc1 [I-159, 3-(4-(tert-butyl)phenyl)quinoxaline-6-carbonitrile]"
4,> 10000 nM,"CC(C)(C)c1ccc(-c2cnc3ccc(-c4nnn[nH]4)cc3n2)cc1 [I-160, 2-(4-(tert-Butyl)phenyl)-7-(1H-tetrazol-5-yl)quinoxaline]"
5,≤ 1000 nM,"CC(C)(C)c1ccc(-c2nc3cc(C(N)=O)ccc3n3cccc23)cc1 [I-166, 4-(4-(tert-butyl)phenyl)pyrrolo[1,2-a]quinoxaline-7-carboxamide]"
6,≤ 1000 nM,"C=CC(=O)NCc1nc(-c2ccc(C(F)(F)F)cc2)c2ccccc2n1 [I-167, N-((4-(4-(trifluoromethyl)phenyl)quinazolin-2-yl)methyl)acrylamide]"
7,≤ 1000 nM,"C=C(F)C(=O)NCc1cc2ccccc2c(-c2ccc(C(F)(F)F)cc2)n1 [I-168, 2-Fluoro-N-((1-(4-(trifluoromethyl)phenyl)isoquinolin-3-yl)methyl)acrylamide]"
8,≤ 1000 nM,"C=CC(=O)NCc1cn2ccnc2c(Nc2cccc(C(F)(F)F)c2)n1 [I-169, N-((8-((3-(trifluoromethyl)phenyl)amino)imidazo[1,2-a]pyrazin-6-yl)methyl) acrylamide]"
9,≤ 1000 nM,"C=CC(=O)NCc1cn2ccnc2c(Nc2ccc(C(F)(F)F)cn2)n1 [I-170, N-((8-((5-(trifluoromethyl)pyridin-2-yl)amino)imidazo[1,2-a]pyrazin-6-yl)methyl)acrylamide]"
10,≤ 1000 nM,"C=CC(=O)NCc1cn2ccnc2c(Oc2cccc(C(F)(F)F)c2)n1 [I-171, N-((8-(3-(trifluoromethyl)phenoxy)imidazo[1,2-a]pyrazin-6-yl)methyl)acrylamide]"
11,≤ 1000 nM,"C=CC(=O)NC(C)c1cn2ccnc2c(-c2ccc(C(F)(F)F)cc2)n1 (centres unmarked) [I-172, N-(1-(8-(4-(trifluoromethyl)phenyl)imidazo[1,2-a]pyrazin-6-yl)ethyl)acrylamide]"
12,≤ 1000 nM,"C=CC(=O)NCc1cn2ccnc2c(-c2ccc(OC(F)(F)F)cc2)n1 [I-173, N-((8-(4-(trifluoromethoxy)phenyl)imidazo[1,2-a]pyrazin-6-yl)methyl)acrylamide]"
13,≤ 1000 nM,"C=CC(=O)NCc1cn2ccnc2c(Oc2ccc(C(F)(F)F)cc2)n1 [I-174, N-((8-(4-(trifluoromethyl)phenoxy)imidazo[1,2-a]pyrazin-6-yl)methyl)acrylamide]"
14,≤ 1000 nM,"C=CC(=O)NCc1cn2ccnc2c(-c2ccc(C(F)(F)F)cc2F)n1 [I-175, N-((8-(2-Fluoro-4-(trifluoromethyl)phenyl)imidazo[1,2-a]pyrazin-6-yl)methyl)acrylamide]"
15,≤ 1000 nM,"FC(F)(F)c1ccc(-c2nc(C3CC(Br)=NO3)cn3ccnc23)cc1 (centres unmarked) [I-176, 3-bromo-5-(8-(4-(trifluoromethyl)phenyl)imidazo[1,2-a]pyrazin-6-yl)-4,5-dihydroisoxazole]"
16,≤ 1000 nM,"C=CC(=O)N(C)Cc1cn2ccnc2c(-c2ccc(C(F)(F)F)cc2)n1 [I-177, N-Methyl-N-((8-(4-(trifluoromethyl)phenyl)imidazo[1,2-a]pyrazin-6-yl)methyl)acrylamide]"

row,GI50,Compound
1,≤ 1000 nM,"C=C(F)C(=O)NCc1cn2ccnc2c(-c2ccc(C(F)(F)F)cc2)n1 [I-178, 2-Fluoro-N-((8-(4-(trifluoromethyl)phenyl)imidazo[1,2-a]pyrazin-6-yl)methyl)acrylamide]"
2,≤ 1000 nM,"CC(NC(=O)N1CCc2c(cccc2-c2ccc(C(F)(F)F)cc2)C1)c1ccccn1 (centres unmarked) [I-179, N-(1-(pyridin-2-yl)ethyl)-5-(4-(trifluoromethyl)phenyl)-3,4-dihydroisoquinoline-2(1H)-carboxamide]"
3,≤ 1000 nM,"COc1cc2c(-c3ccc(C(C)(C)C)cc3)nc3cc(C(=O)O)ccc3n2c1 [I-180, 4-(4-(tert-butyl)phenyl)-2-methoxypyrrolo[1,2-a]quinoxaline-7-carboxylic acid]"
4,≤ 1000 nM,"COc1cc(-c2ccc(C(F)(F)F)cc2)nc2cc(C(=O)O)ccc12 [I-181, 4-methoxy-2-(4-(trifluoromethyl)phenyl)quinoline-7-carboxylic acid]"
5,5000 to 10000 nM,"FC(F)(F)c1ccc(-c2nc3cc(-c4nnn[nH]4)ccc3n3cccc23)cc1 [I-184, 7-(1H-tetrazol-5-yl)-4-(4-(trifluoromethyl)phenyl)pyrrolo[1,2-a]quinoxaline]"
6,1000 to 5000 nM,"CC(C)(C)c1ccc(-c2nc3cc(C(=O)NCCO)ccc3n3cccc23)cc1 [I-185, 4-(4-(tert-butyl)phenyl)-N-(2-hydroxyethyl)pyrrolo[1,2-a]quinoxaline-7-carboxamide]"
7,1000 to 5000 nM,"CC(CO)NC(=O)c1ccc2c(c1)nc(-c1ccc(C(C)(C)C)cc1)c1cccn12 (centres unmarked) [I-186, 4-(4-(tert-butyl)phenyl)-N-(1-hydroxypropan-2-yl)pyrrolo[1,2-a]quinoxaline-7-carboxamide]"
8,1000 to 5000 nM,"CN(C)CCNC(=O)c1ccc2c(c1)nc(-c1ccc(C(C)(C)C)cc1)c1cccn12 [I-188, 4-(4-(tert-butyl)phenyl)-N-(2-(dimethylamino)ethyl)pyrrolo[1,2-a]quinoxaline-7-carboxamide]"
9,5000 to 10000 nM,"CC(C)(C)c1ccc(-c2nc3cc(-c4nnc(N)o4)ccc3n3cccc23)cc1 [I-189, 5-(4-(4-(tert-butyl)phenyl)pyrrolo[1,2-a]quinoxalin-7-yl)-1,3,4-oxadiazol-2-amine]"
10,1000 to 5000 nM,"C[C@@H](CO)NC(=O)c1ccc2c(c1)nc(-c1ccc(C(C)(C)C)cc1)c1cccn12 [I-190, (S)-4-(4-(tert-butyl)phenyl)-N-(1-hydroxypropan-2-yl)pyrrolo[1,2-a]quinoxaline-7-carboxamide]"
11,≤ 1000 nM,"C[C@H](CO)NC(=O)c1ccc2c(c1)nc(-c1ccc(C(C)(C)C)cc1)c1cccn12 [I-191, (R)-4-(4-(tert-butyl)phenyl)-N-(1-hydroxypropan-2-yl)pyrrolo[1,2-a]quinoxaline-7-carboxamide]"
12,≤ 1000 nM,"O=C(O)c1ccc2c(c1)nc(-c1ccc(OC(F)(F)F)cc1)c1cccn12 [I-192, 4-(4-(trifluoromethoxy)phenyl)pyrrolo[1,2-a]quinoxaline-7-carboxylic acid]"
13,1000 to 5000 nM,"O=C(O)c1ccc2c(c1)nc(-c1ccc(OC(F)F)cc1)c1cccn12 [I-193, 4-(4-(difluoromethoxy)phenyl)pyrrolo[1,2-a]quinoxaline-7-carboxylic acid]"
14,≤ 1000 nM,"O=C(O)c1ccc2c(c1)nc(-c1ccc(SC(F)(F)F)cc1)c1cccn12 [I-194, 4-(4-((trifluoromethyl)thio)phenyl)pyrrolo[1,2-a]quinoxaline-7-carboxylic acid]"
15,1000 to 5000 nM,"CC(c1ccc(-c2nc3cc(C(=O)O)ccc3n3cccc23)cc1)C(F)(F)F (centres unmarked) [I-195, 4-(4-(1,1,1-trifluoropropan-2-yl)phenyl)pyrrolo[1,2-a]quinoxaline-7-carboxylic acid]"
16,1000 to 5000 nM,"O=C(O)c1ccc2c(c1)nc(-c1ccc(C3(C(F)(F)F)CC3)cc1)c1cccn12 [I-196, 4-(4-(1-(trifluoromethyl)cyclopropyl)phenyl)pyrrolo[1,2-a]quinoxaline-7-carboxylic acid]"
